Assay results: patent US8227428B2, “Anti-infammatory macrolide” (Glaxo Group Limited, priority 2009, dated 2012)

Test: Stability in buffer solutions pH 2 to pH 8 at 25° C.
Type: physicochemical
Protocol: Stability in buffer solutions pH 2 to pH 8 at 25° C., and in bio-relevant media (SGF pH 1.6, Fasted SIF pH 6.5 and Fed SIF pH 5.0) at 37° C., during 24 hours is monitored. The samples are analysed by LC/MS.
Buffer Solutions and Physiologically Relevant Media Used in Stability Assay:
LC Conditions: Instrument HP1100
Column: Waters XBridge C18, 2.1×50 mm, 3.5 μm
Guard column: Waters XBridge C18, 2.1×10 mm, 3.5 μm
• A) 0.1% HCOOH/H2O • B) 0.1% HCOOH/CH3CN Gradient Timetable: […]
Flow: 0.3 mL/min Column temp.: 25° C. Sample temp.: 25° C. (for stability assay in buffer solutions) • 37° C. (for stability assay in bio-relevant media) Injector volume: 3 μL (without injection program) MS Conditions: Instrument HP MS API-ES, positive ion mode Mass Range: 150-1500 Fragmentor: 100 Gain: 1.0 Treshold: 150 Step size: 0.20 Gas Temperature: 350° C. Drying Gas Flow: 13 L/min Nebulizer Pressure: 35 psig Capillary Voltage Positive 4000 V • Negative 4000 V Sample Preparation: a) For Stability Assay in Buffer Solutions
Compounds are dissolved in CH3CN to produce a 1 mg/mL stock solution. The stock solution is diluted to a concentration of 0.2 mg/mL (1 mL solution in 4 mL buffer) with appropriate buffer to produce a working solution.
Each solution at each pH is then dispatched into vials that are sealed and stored at room temperature in order to be analyzed at the proper time point. Before analysis, pH values of prepared sample solutions are checked and adjusted if neccessary.

CC[C@H]1OC(=O)[C@H](C)[C@@H](O[C@H]2C[C@@](C)(OC)[C@@H](OC(=O)CCN(CC)CC)[C@H](C)O2)[C@H](C)[C@@H](O[C@@H]2O[C@H](C)C[C@H](NC)[C@H]2O)[C@](C)(OC)C[C@@H](C)C(=O)N[C@H](C)[C@@H](O)[C@]1(C)O [Example 2, 3′-N-Demethyl-4″-O-(3-diethylaminopropionoyl)-6-O-methyl-9a-aza-9a-homoerythromycin A]
Percentage (Area %) of the compound observed in buffers (pH 4, 25° C., 6 h): 100 Area %
Percentage (Area %) of the compound observed in buffers (pH 4, 25° C., 8 h): 99.3 Area %
Percentage (Area %) of the compound observed in buffers (pH 4, 25° C., 12 h): 99.0 Area %
Percentage (Area %) of the compound observed in buffers (pH 4, 25° C., 14 h): 98.5 Area %
Percentage (Area %) of the compound observed in buffers (pH 4, 25° C., 18 h): 98.5 Area %
Percentage (Area %) of the compound observed in buffers (pH 4, 25° C., 20 h): 98.4 Area %
Percentage (Area %) of the compound observed in buffers (pH 4, 25° C., 22 h): 98.4 Area %
Percentage (Area %) of the compound observed in buffers (pH 4, 25° C., 24 h): 98.3 Area %
Percentage (Area %) of the compound observed in buffers (pH 4, 25° C., Initial): 100 Area %
Percentage (Area %) of the compound observed in buffers (pH 5, 25° C., 2 h): 98.5 Area %
Percentage (Area %) of the compound observed in buffers (pH 5, 25° C., 4 h): 98.5 Area %
Percentage (Area %) of the compound observed in buffers (pH 5, 25° C., 6 h): 98.4 Area %
Percentage (Area %) of the compound observed in buffers (pH 5, 25° C., 8 h): 98.4 Area %
Percentage (Area %) of the compound observed in buffers (pH 5, 25° C., 12 h): 98.4 Area %
Percentage (Area %) of the compound observed in buffers (pH 5, 25° C., 14 h): 98.3 Area %
Percentage (Area %) of the compound observed in buffers (pH 5, 25° C., 18 h): 98.3 Area %
Percentage (Area %) of the compound observed in buffers (pH 5, 25° C., 20 h): 98.3 Area %
Percentage (Area %) of the compound observed in buffers (pH 5, 25° C., 22 h): 98.3 Area %
Percentage (Area %) of the compound observed in buffers (pH 5, 25° C., 24 h): 98.0 Area %
Percentage (Area %) of the compound observed in buffers (pH 5, 25° C., Initial): 100 Area %
Percentage (Area %) of the compound observed in buffers (pH 6, 25° C., 2 h): 99.6 Area %
Percentage (Area %) of the compound observed in buffers (pH 6, 25° C., 4 h): 99.4 Area %
Percentage (Area %) of the compound observed in buffers (pH 6, 25° C., 6 h): 99.0 Area %
Percentage (Area %) of the compound observed in buffers (pH 6, 25° C., 8 h): 99.0 Area %
Percentage (Area %) of the compound observed in buffers (pH 6, 25° C., 12 h): 99.0 Area %
Percentage (Area %) of the compound observed in buffers (pH 6, 25° C., 14 h): 98.5 Area %
Percentage (Area %) of the compound observed in buffers (pH 6, 25° C., 18 h): 98.3 Area %
Percentage (Area %) of the compound observed in buffers (pH 6, 25° C., 20 h): 98.2 Area %
Percentage (Area %) of the compound observed in buffers (pH 6, 25° C., 22 h): 98.2 Area %
Percentage (Area %) of the compound observed in buffers (pH 6, 25° C., 24 h): 98.1 Area %
Percentage (Area %) of the compound observed in buffers (pH 6, 25° C., Initial): 100 Area %
Percentage (Area %) of the compound observed in buffers (pH 7, 25° C., 2 h): 97.8 Area %
Percentage (Area %) of the compound observed in buffers (pH 7, 25° C., 4 h): 93.4 Area %
Percentage (Area %) of the compound observed in buffers (pH 7, 25° C., 6 h): 89.8 Area %
Percentage (Area %) of the compound observed in buffers (pH 7, 25° C., 8 h): 89.3 Area %
Percentage (Area %) of the compound observed in buffers (pH 7, 25° C., 12 h): 85.1 Area %
Percentage (Area %) of the compound observed in buffers (pH 7, 25° C., 14 h): 84.3 Area %
Percentage (Area %) of the compound observed in buffers (pH 7, 25° C., 18 h): 84.0 Area %
Percentage (Area %) of the compound observed in buffers (pH 7, 25° C., 20 h): 81.3 Area %
Percentage (Area %) of the compound observed in buffers (pH 7, 25° C., 22 h): 79.9 Area %
Percentage (Area %) of the compound observed in buffers (pH 7, 25° C., 24 h): 78.4 Area %
Percentage (Area %) of the compound observed in buffers (pH 7, 25° C., Initial): 100 Area %
Percentage (Area %) of the compound observed in buffers (pH 8, 25° C., 2 h): 92.0 Area %
Percentage (Area %) of the compound observed in buffers (pH 8, 25° C., 4 h): 81.7 Area %
Percentage (Area %) of the compound observed in buffers (pH 8, 25° C., 6 h): 77.7 Area %
Percentage (Area %) of the compound observed in buffers (pH 8, 25° C., 8 h): 71.7 Area %
Percentage (Area %) of the compound observed in buffers (pH 8, 25° C., 12 h): 63.4 Area %
Percentage (Area %) of the compound observed in buffers (pH 8, 25° C., 14 h): 60.2 Area %
Percentage (Area %) of the compound observed in buffers (pH 8, 25° C., 18 h): 54.2 Area %
Percentage (Area %) of the compound observed in buffers (pH 8, 25° C., 20 h): 51.1 Area %
Percentage (Area %) of the compound observed in buffers (pH 8, 25° C., 22 h): 47.1 Area %
Percentage (Area %) of the compound observed in buffers (pH 8, 25° C., 24 h): 44.6 Area %
Percentage (Area %) of the compound observed in buffers (pH 8, 25° C., Initial): 100 Area %
